In ChEMBL document CHEMBL4359925, “Rational discovery of a highly novel and selective mTOR inhibitor” (Bioorg Med Chem Lett, 2019):
Active and inactive are the calls of the source. The calls are words filed in the database; no cut-off is given here.

Columns and labels:
NCI-H1975 = test: Additive antiproliferative activity against human NCI-H1975 cells harboring EGFR […]/T790M mutant in presence of erlotinib; type: functional, cell-based
[1] = Tmax in rat at 83 mg/kg, po; type: ADME, organism-based; conditions: in vivo
[2] = Cmax in dog at 10 mg/kg, po; type: ADME, organism-based, Canis lupus familiaris; design: dose 10 mg/kg, route oral; conditions: in vivo
[3] = Cmax in mouse at 26 mg/kg, po; type: ADME, organism-based; design: dose 26 mg/kg, route oral; conditions: in vivo
[4] = Cmax in mouse at 10.4 mg/kg, iv; type: ADME, organism-based; design: dose 10.4 mg/kg, route intravenous; conditions: in vivo
[5] = Half-life in mouse at 8.7 mg/kg, po; type: ADME, organism-based; conditions: in vivo
NCI-H1395 [6] = test: Additive antiproliferative activity against human NCI-H1395 cells harboring LKB1 mutant in presence of erlotinib; type: functional, cell-based
NCI-H929 = test: Antiproliferative activity against human NCI-H929 cells; type: functional, cell-based
[7] = biological target: Phosphatidylinositol 4,5-bisphosphate 3-kinase catalytic subunit alpha isoform (Homo sapiens, UniProt P42336); test: Inhibition of PI3K alpha (unknown origin)
Phosphatidylinositol 4,5-bisphosphate 3-kinase catalytic subunit alpha isoform, sequence (P42336 whole entry, canonical isoform): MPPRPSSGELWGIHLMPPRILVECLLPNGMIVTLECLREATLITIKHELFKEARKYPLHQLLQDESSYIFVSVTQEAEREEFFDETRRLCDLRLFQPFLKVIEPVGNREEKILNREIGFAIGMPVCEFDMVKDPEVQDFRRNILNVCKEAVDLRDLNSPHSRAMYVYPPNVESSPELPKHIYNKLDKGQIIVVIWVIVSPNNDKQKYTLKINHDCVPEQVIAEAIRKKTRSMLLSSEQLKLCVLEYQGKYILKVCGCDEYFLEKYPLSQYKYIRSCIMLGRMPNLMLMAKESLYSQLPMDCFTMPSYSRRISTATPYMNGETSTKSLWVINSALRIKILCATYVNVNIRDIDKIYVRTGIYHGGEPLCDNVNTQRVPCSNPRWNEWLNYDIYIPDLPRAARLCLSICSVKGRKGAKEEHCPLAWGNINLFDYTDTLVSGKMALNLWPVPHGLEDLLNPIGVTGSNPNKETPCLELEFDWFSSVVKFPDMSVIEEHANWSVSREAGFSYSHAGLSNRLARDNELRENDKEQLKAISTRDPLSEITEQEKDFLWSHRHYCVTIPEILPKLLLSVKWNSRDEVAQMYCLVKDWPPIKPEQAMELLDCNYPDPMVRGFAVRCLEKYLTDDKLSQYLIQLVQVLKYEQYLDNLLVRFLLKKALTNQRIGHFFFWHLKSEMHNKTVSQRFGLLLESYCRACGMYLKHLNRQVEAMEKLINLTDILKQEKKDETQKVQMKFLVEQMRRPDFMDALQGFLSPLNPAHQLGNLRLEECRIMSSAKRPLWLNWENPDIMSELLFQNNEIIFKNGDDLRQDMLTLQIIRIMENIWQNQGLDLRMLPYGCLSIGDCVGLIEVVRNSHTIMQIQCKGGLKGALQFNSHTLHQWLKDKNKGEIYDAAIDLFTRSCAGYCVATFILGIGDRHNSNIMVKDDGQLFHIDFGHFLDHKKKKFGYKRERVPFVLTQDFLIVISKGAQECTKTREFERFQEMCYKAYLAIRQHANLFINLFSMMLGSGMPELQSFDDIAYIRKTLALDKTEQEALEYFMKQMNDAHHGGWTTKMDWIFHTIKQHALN

[8] = Tmax in rat at 31 mg/kg, po; type: ADME, organism-based; conditions: in vivo
[9] = Volume of distribution at steady state in dog at 0.2 mg/kg, iv; type: ADME, organism-based, Canis lupus familiaris; conditions: in vivo, read-out: Vdss
[10] = Tmax in rat at 95 mg/kg, po; type: ADME, organism-based; conditions: in vivo
A549 [11] = test: Synergistic antiproliferative activity against human A549 cells harboring LKB1 mutant in presence of erlotinib; type: functional, cell-based
[12] = Half-life in rat at 4.1 mg/kg, po; type: ADME, organism-based; conditions: in vivo
BXPC-3 = test: Antiproliferative activity against human BxPC3 cells; type: functional, cell-based
NCI-H460 [13] = test: Antiproliferative activity against human H460 cells; type: functional, cell-based
[14] = Tmax in rat at 30 mg/kg, po; type: ADME, organism-based; conditions: in vivo
[15] = Clearance in dog at 0.2 mg/kg, iv; type: ADME, organism-based, Canis lupus familiaris; conditions: in vivo
[16] = Cmax in rat at 95 mg/kg, po; type: ADME, organism-based; design: dose 95 mg/kg, route oral; conditions: in vivo
[17] = Tmax in rat at 160 mg/kg, po; type: ADME, organism-based; conditions: in vivo
[18] = Tmax in rat at 93 mg/kg, po; type: ADME, organism-based; conditions: in vivo
[19] = biological target: Serine/threonine-protein kinase mTOR (Homo sapiens, UniProt P42345); test: Inhibition of human mTOR measured after 30 mins in presence of ATP by Lanthascreen TR-FRET assay
[20] = Tmax in rat at 100 mg/kg, po; type: ADME, organism-based; conditions: in vivo
[21] = Volume of distribution at steady state in rat at 0.8 mg/kg, iv; type: ADME, organism-based; conditions: in vivo, read-out: Vdss
NCI-H1395 [22] = test: Additive antiproliferative activity against human NCI-H1395 cells harboring BRAF G469A in presence of erlotinib; type: functional, cell-based
A2780 = test: Antiproliferative activity against human A2780; type: functional, cell-based
NCI-H1650 [23] = test: Antiproliferative activity against human NCI-H1650 cells; type: functional, cell-based
NCI-H460 [24] = test: Synergistic antiproliferative activity against human H460 cells harboring LKB1 mutant in presence of erlotinib; type: functional, cell-based
[25] = Half-life in mouse at 26 mg/kg, po; type: ADME, organism-based; conditions: in vivo
[26] = Half-life in rat at 4.9 mg/kg, po; type: ADME, organism-based; conditions: in vivo
NCI-H1650 [27] = test: Additive antiproliferative activity against human NCI-H1650 cells harboring EGFR E746-A750del mutant in presence of erlotinib; type: functional, cell-based
[28] = Half-life in rat at 30 mg/kg, po; type: ADME, organism-based; conditions: in vivo
[29] = Half-life in rat at 100 mg/kg, po; type: ADME, organism-based; conditions: in vivo
[30] = Half-life in rat at 0.8 mg/kg, iv; type: ADME, organism-based; conditions: in vivo
[31] = Cmax in mouse at 2.8 mg/kg, iv; type: ADME, organism-based; design: dose 2.8 mg/kg, route intravenous; conditions: in vivo
[32] = Cmax in rat at 83 mg/kg, po; type: ADME, organism-based; design: dose 83 mg/kg, route oral; conditions: in vivo
[33] = Cmax in rat at 4.1 mg/kg, po; type: ADME, organism-based; design: dose 4.1 mg/kg, route oral; conditions: in vivo
[34] = Volume of distribution at steady state in mouse at 2.8 mg/kg, iv; type: ADME, organism-based; conditions: in vivo, read-out: Vdss
786-0 = test: Antitumour activity against human 786-O cells in xenograft model assessed as tumour growth inhibition at 30 mg/kg, qd; type: functional, organism-based
NCI-H1395 [35] = test: Antiproliferative activity against human NCI-H1395 cells; type: functional, cell-based
[36] = Half-life in rat at 3 mg/kg, po; type: ADME, organism-based; conditions: in vivo
NCI-H1395 [37] = test: Additive antiproliferative activity against human NCI-H1395 cells harboring LKB1 mutant in presence of gemcitabine; type: functional, cell-based
NCI-H460 [38] = test: Synergistic antiproliferative activity against human H460 cells harboring KRAS […] mutant in presence of erlotinib
[39] = Tmax in rat at 4.1 mg/kg, po; type: ADME, organism-based; conditions: in vivo
A549 [40] = test: Synergistic antiproliferative activity against human A549 cells harboring KRAS G12S mutant in presence of erlotinib; type: functional, cell-based
NCI-H292 = test: Additive antiproliferative activity against human NCI-H292 cells in presence of erlotinib; type: functional, cell-based
NCI-H1395 [41] = test: Additive antiproliferative activity against human NCI-H1395 cells harboring BRAF G469A in presence of gemcitabine; type: functional, cell-based

Tmax [1]: 14 h | Cmax [2]: 549 ng/mL | Cmax [3]: 11100 ng/mL | Cmax [4]: 17700 ng/mL | half-life [5]: 2.3 h | IC50 [7]: 1260 nM | Tmax [8]: 8 to 19.3 h | Vd [9]: 1.12 L/kg | Tmax [10]: 13.3 h | half-life [12]: 15.2 h | Tmax [14]: 4 to 8 h | clearance [15]: 3.3 mL/min/kg | Cmax [16]: 2610 ng/mL | Tmax [17]: 10 h | Tmax [18]: 8.7 h | IC50 [19]: 12.6 nM | Tmax [20]: 4.7 to 14.7 h | Vd [21]: 0.951 L/kg | half-life [25]: 9.2 h | half-life [26]: 5.5 h | half-life [28]: 9 to 13.5 h | half-life [29]: 14.7 to 15 h | half-life [30]: 1.8 h | Cmax [31]: 6860 ng/mL | Cmax [32]: 2370 ng/mL | Cmax [33]: 150 ng/mL | Vd [34]: 1.66 L/kg | half-life [36]: 10.3 h | Tmax [39]: 4 h
SMILES: CC(F)(F)CN1C(=O)[C@]2(C)COCCN2c2nc(-c3ccc(NC(=O)NC4CC4)cc3)ncc21
Activity (NCI-H1975): Active | Activity (NCI-H1395 [6]): Active | Activity (NCI-H929): Active | Activity (A549 [11]): Active | Activity (BXPC-3): Active | Activity (NCI-H460 [13]): Active | Activity (NCI-H1395 [22]): Active | Activity (A2780): Active | Activity (NCI-H1650 [23]): Active | Activity (NCI-H460 [24]): Active | Activity (NCI-H1650 [27]): Active | TGI (786-0): Active | Activity (NCI-H1395 [35]): Active | Activity (NCI-H1395 [37]): Active | Activity (NCI-H460 [38]): Active | Activity (A549 [40]): Active | Activity (NCI-H292): Active | Activity (NCI-H1395 [41]): Active
